What was measured:
[1] = tested on: succinic acid dehydrogenase activity of mitochondria; assay: Succinic acid dehydrogenase activity in muscle cell; type: cell-based, Mouse; conditions: for succinic acid dehydrogenase activity: two days, control group 100
Method: • (1) In the same manner as in Example 1, C2C12 cells were cultured in a growth medium to not less than 90% confluence. • (2) The medium was exchanged with a differentiation medium, and the cells were cultured until observation of myotube formation under a microscope. • (3) The compounds of Reference Example 1 and Reference Example 7 were added, and the cells were cultured for two days. • (4) ATP content was measured using Cell Titer-Glo™ Luminescence cell viable assay (Promega) and succinic acid dehydrogenase activity of mitochondria was measured using Cell Counting Kit-8 (Dojin). The data of Table 17 show mean±standard deviation at n=3-4 (n is the number of samples).

[2] = tested on: C2C12 cell; assay: Sugar metabolism promoting activity in muscle cell (lactic acid production); type: cell-based, Mouse; conditions: Mus musculus, 48 h; compound 1 μM, 2 days, C2C12 myotubes; without drug = 100%; read-out: lactic acid production promoting action (%)
Method: • (1) In the same manner as in Example 1, C2C12 cell was cultured in a growth medium. After reaching subconfluence of not less than 90%, the medium was exchanged with a differentiation medium and the cells were cultured for about 7 days while exchanging the medium every 2 or 3 days until the cells differentiated to form a myotube. • (2) After confirmation of myotube formation under a microscope, the test compound (1 μM) was added to a differentiation medium and cultured for 2 days. The cells were washed with Krebs-Ringer HEPES phosphate buffer (10 mM HEPES, pH 7.4, 131 mM NaCl, 4.7 mM KCl, 2.5 mM CaCl2—2H2O, 1.2 mM MgSO4—7H2O, 1.2 mM KH2PO4), the medium was exchanged with Krebs-Ringer HEPES phosphate buffer added with 5 mM glucose, 0.2% fatty acid-free bovine serum albumin, and cultured at 37° C. for 4 hr. • (3) The lactic acid concentration of the culture supernatant was measured using Detarminer LA kit (Kyowa Medex Co., Ltd.).
The numerical values in Table 2 show the concentration of the compound addition group with the concentration of lactic acid without addition of a drug as 100%.

[3] = tested on: Female KKA^y mice; assay: Anti-diabetes action and dyslipidemia improving effect in KKA^y mouse; type: in vivo; conditions: 2 weeks, control group = 100
Method: Female KKA^y mice (12-week-old, CLEA Japan, Inc.) were bred while allowing free ingestion of both feed and water. The mice were bred for acclimation with powder CE-2 (CLEA Japan, Inc.) from 2 weeks before administration of the compound. The body weight and plasma markers were measured and, at 14 weeks of age, they were divided such that the measured values were uniform with those of the control group. The compound of Reference Example 1, 2, 7, 8, 9 or 22 was administered for 2 weeks in a mixed feed (0.01-0.0001%). On the last day, plasma levels of glucose, insulin, total cholesterol and neutral lipid were measured.

[4] = tested on: C2C12 cells; assay: Sugar uptake promoting activity in muscle cell (2DG uptake); type: cell-based, Mouse; conditions: for 2DG uptake (%): control group (DMSO) = 100%
Method: • (1) In the same manner as in Example 1, C2C12 cells were cultured in a growth medium to not less than 90% confluence. • (2) The medium was exchanged with a differentiation medium, and the cells were cultured until observation of myotube formation under a microscope. • (3) The compounds of Reference Example 1 and Reference Example 7 were added, and the cells were cultured overnight. • (4) The cells were washed with krebs-ringer HEPES phosphate buffer added with 1% bovine serum albumin, cultured for 30 min in this buffer, 2-deoxyglucose (2DG) (0.1 mM, 0.8 μCi/250 μL) was added and the cells were cultured at 37° C. for 75 min. • (5) The cells were washed 4 times with PBS, MicroScint-20 (125 μL/well, PerkinElmer) was added and the radioactivity was measured by a scintillation counter. DMSO (dimethyl sulfoxide) alone was added to the control group. The numerical values of 2DG uptake in Table 10 are relative values to the control group as 100%.
The data in Table 10 show mean±standard deviation at n=6 (n is the number of samples).

Row | SMILES | succinic acid dehydrogenase activity (in words) [1] | succinic acid dehydrogenase activity ([1]; compound 0.01 nM) | succinic acid dehydrogenase activity ([1]; compound 0.1 nM) | succinic acid dehydrogenase activity ([1]; compound 1 nM) | activity at 1 µM [2] [%] | plasma glucose (%) ([3]; mixed feed dose 0.0001 %) | plasma insulin (%) ([3]; mixed feed dose 0.0001 %) | plasma neutral lipid (%) ([3]; mixed feed dose 0.0001 %) | plasma total cholesterol (%) ([3]; mixed feed dose 0.0001 %) | sugar uptake of C2C12 cell differentiated into muscle cell (in words) [4] | 2DG uptake (%) ([4]; compound 0.1 nM overnight) | 2DG uptake (%) ([4]; compound 1 nM overnight) | 2DG uptake (%) ([4]; compound 10 nM overnight) | 2DG uptake (%) ([4]; compound 100 nM overnight) | succinic acid dehydrogenase activity ([1]; compound 10 nM) | succinic acid dehydrogenase activity ([1]; compound 100 nM) | plasma glucose (%) ([3]; mixed feed dose 0.01 %) | plasma insulin (%) ([3]; mixed feed dose 0.01 %) | plasma neutral lipid (%) ([3]; mixed feed dose 0.01 %) | plasma total cholesterol (%) ([3]; mixed feed dose 0.01 %)
1 | Cc1ncccc1Oc1sc(C(N)=O)c2c1-c1c(cnn1C)CC2 [Ref. Ex. 1, 1-methyl-8-[(2-methylpyridin-3-yl)oxy]-4,5-dihydro-1H-thieno[3,4-g]indazole-6-carboxamide] | increased | 98 ± 10 | 113 ± 5 | 124 ± 3 | 247 | 53.2 ± 19.1 | 27.3 ± 19.5 | 38.9 ± 11.0 | 61.6 ± 10.8 | promoted | 89 | 150 | 166 | 187 |  |  |  |  |  | 
2 | Cn1ncc2c1-c1c(Oc3cccnc3)sc(C(N)=O)c1CC2 [Ref. Ex. 7, 1-methyl-8-(pyridin-3-yloxy)-4,5-dihydro-1H-thieno[3,4-g]indazole-6-carboxamide] | increased |  |  | 111 ± 3 | 254 |  |  |  |  | promoted | 69 | 100 | 137 | 181 | 120 ± 4 | 131 ± 7 | 40.3 ± 4.5 | 2.9 ± 1.7 | 33.9 ± 8.6 | 64.8 ± 12.0

Reference: patent US20130184272A1, “DIABETES THERAPEUTIC AGENT” (TAKEDA PHARMACEUTICAL COMPANY LIMITED, priority 2010, published 2013)
